#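 Assay format: 96-well plates, 48-hour exposure. The concentration for 50% growth inhibition is given as GI50.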 Calls of active or inactive are those of the source. Cut-off read from the data, not from the text of the source: active = GI50 up to about 1.1 µM and inactive = higher.
# How the values were obtained:
# Assay in all cases: NCI-60 cell line screen, 48 h
# [1] = system: HT-29
# [2] = system: CCRF-CEM
# [3] = system: RXF 393
# [4] = system: HCT-15
# [5] = system: ACHN
# [6] = system: NCI-H522
# [7] = system: A498
# [8] = system: SK-MEL-28
# [9] = system: SK-MEL-5
# [10] = system: SNB-75
# [11] = system: LOX IMVI
# [12] = system: HCC 2998
# [13] = system: NCI-H226
# [14] = system: 786-0
# [15] = system: K562
# [16] = system: CAKI-1
# [17] = system: HL-60
# [18] = system: SF-539
# [19] = system: OVCAR-5
# [20] = system: Malme-3M
Structure (SMILES),GI50 [1],GI50 [2],GI50 [3],GI50 [4] [µM],GI50 [5],GI50 [6],GI50 [7],GI50 [8],GI50 [9],GI50 [10],GI50 [11],GI50 [12],GI50 [13],GI50 [14],GI50 [15],GI50 [16],GI50 [17],GI50 [18],GI50 [19],GI50 [20]
CC1(CO)COS(=O)OC1 (configuration not stated),> 100 µM (inactive),> 100 µM (inactive),> 100 µM (inactive),> 100,> 100 µM (inactive),> 100 µM (inactive),1.89 µM (inactive),> 100 µM (inactive),> 100 µM (inactive),> 100 µM (inactive),> 100 µM (inactive),> 100 µM (inactive),> 100 µM (inactive),–,–,–,–,–,–,–
Oc1cccc(-c2nc3ccccc3s2)c1,18.8 µM (inactive),57 µM (inactive),32.1 µM (inactive),25.5,41 µM (inactive),17.6 µM (inactive),52.5 µM (inactive),74.6 µM (inactive),–,19 µM (inactive),26.5 µM (inactive),–,10.8 µM (inactive),71.6 µM (inactive),55.6 µM (inactive),23.9 µM (inactive),47.8 µM (inactive),28.7 µM (inactive),14.8 µM (inactive),2.99 µM (inactive)
COc1ccc(CC2COc3cc(O)cc(O)c3C2=O)cc1O (configuration not stated),13.6 µM (inactive),3.4 µM (inactive),24.5 µM (inactive),3.16,24.4 µM (inactive),4.7 µM (inactive),99.3 µM (inactive),3.75 µM (inactive),5.13 µM (inactive),1.37 µM (inactive),8.83 µM (inactive),–,–,9.75 µM (inactive),3.13 µM (inactive),4.88 µM (inactive),2.4 µM (inactive),2.97 µM (inactive),12.3 µM (inactive),4.21 µM (inactive)
Cc1ccc(S(=O)(=O)OCCOCCOCCOCCOCCOS(=O)(=O)c2ccc(C)cc2)cc1,28.3 µM (inactive),21.4 µM (inactive),> 100 µM (inactive),55.6,36.6 µM (inactive),23.7 µM (inactive),44.4 µM (inactive),> 100 µM (inactive),18.4 µM (inactive),> 100 µM (inactive),45.2 µM (inactive),41.6 µM (inactive),33.5 µM (inactive),62.8 µM (inactive),31.7 µM (inactive),47.1 µM (inactive),–,–,> 100 µM (inactive),73.6 µM (inactive)
COC1OC2COC1(OC)C1OC(C)(C)OC21 (configuration not stated),> 100 µM (inactive),> 100 µM (inactive),> 100 µM (inactive),> 100,> 100 µM (inactive),> 100 µM (inactive),> 100 µM (inactive),> 100 µM (inactive),> 100 µM (inactive),> 100 µM (inactive),–,> 100 µM (inactive),> 100 µM (inactive),> 100 µM (inactive),> 100 µM (inactive),> 100 µM (inactive),–,–,> 100 µM (inactive),> 100 µM (inactive)
CC/N=C(\N)CSS(=O)(=O)O,> 100 µM (inactive),> 100 µM (inactive),> 100 µM (inactive),> 100,> 100 µM (inactive),> 100 µM (inactive),> 100 µM (inactive),> 100 µM (inactive),> 100 µM (inactive),> 100 µM (inactive),38.3 µM (inactive),–,> 100 µM (inactive),> 100 µM (inactive),> 100 µM (inactive),> 100 µM (inactive),> 100 µM (inactive),> 100 µM (inactive),> 100 µM (inactive),> 100 µM (inactive)
N=C(N)NCC(N)C(=O)O (configuration not stated),> 100 µM (inactive),–,> 100 µM (inactive),> 100,> 100 µM (inactive),> 100 µM (inactive),> 100 µM (inactive),> 100 µM (inactive),> 100 µM (inactive),> 100 µM (inactive),> 100 µM (inactive),–,> 100 µM (inactive),> 100 µM (inactive),> 100 µM (inactive),> 100 µM (inactive),> 100 µM (inactive),> 100 µM (inactive),> 100 µM (inactive),> 100 µM (inactive)
O=C(NC1CCCCC1)NC12CC3CC(CC(F)(C3)C1)C2,> 100 µM (inactive),> 100 µM (inactive),> 100 µM (inactive),–,> 100 µM (inactive),> 100 µM (inactive),> 100 µM (inactive),> 100 µM (inactive),> 100 µM (inactive),40.4 µM (inactive),> 100 µM (inactive),> 100 µM (inactive),–,> 100 µM (inactive),> 100 µM (inactive),–,> 100 µM (inactive),> 100 µM (inactive),> 100 µM (inactive),> 100 µM (inactive)
CCNC(=S)N/N=C/c1ccccn1,4.47 µM (inactive),0.957 µM (active),19 µM (inactive),6.64,5.69 µM (inactive),0.579 µM (active),5.09 µM (inactive),16.7 µM (inactive),3.95 µM (inactive),62.2 µM (inactive),7.18 µM (inactive),–,3.83 µM (inactive),5.81 µM (inactive),2.86 µM (inactive),–,3.74 µM (inactive),6.7 µM (inactive),15.4 µM (inactive),5.78 µM (inactive)
COc1ccc(Nc2nc(N)c(C(=O)c3c[nH]c4ccccc34)s2)cc1,0.583 µM (active),2.16 µM (inactive),2.03 µM (inactive),0.433,5.12 µM (inactive),0.0302 µM (active),2.05 µM (inactive),14.9 µM (inactive),1.3 µM (inactive),1.57 µM (inactive),2.01 µM (inactive),–,11.1 µM (inactive),2.15 µM (inactive),0.397 µM (active),2.18 µM (inactive),1.07 µM (active),2.42 µM (inactive),3.13 µM (inactive),3.44 µM (inactive)
CCN(CC)CCn1nc2c3c(c(NCCN)ccc31)Sc1cc(O)ccc1-2,0.507 µM (active),0.166 µM (active),1.14 µM (inactive),3.03,0.579 µM (active),0.175 µM (active),1.36 µM (inactive),1.38 µM (inactive),0.733 µM (active),0.813 µM (active),0.146 µM (active),–,–,0.741 µM (active),0.314 µM (active),0.516 µM (active),0.0962 µM (active),0.406 µM (active),1.56 µM (inactive),1.07 µM (active)
OC1C2CCC3C2CC(C(O)(c2ccccc2)c2ccccc2)C13 (configuration not stated),74.5 µM (inactive),29.4 µM (inactive),34.7 µM (inactive),31.5,33.7 µM (inactive),34.8 µM (inactive),37 µM (inactive),> 100 µM (inactive),28.6 µM (inactive),5.47 µM (inactive),37.8 µM (inactive),> 100 µM (inactive),28.6 µM (inactive),37.5 µM (inactive),18.2 µM (inactive),40 µM (inactive),–,38.3 µM (inactive),> 100 µM (inactive),28.4 µM (inactive)
O=C1c2ccccc2C2(c3ccc(Cl)cc3)N[C@H]3CCCC[C@@H]3N12 (some centres not stated),73.8 µM (inactive),53.2 µM (inactive),97.9 µM (inactive),> 100,> 100 µM (inactive),–,> 100 µM (inactive),> 100 µM (inactive),> 100 µM (inactive),> 100 µM (inactive),> 100 µM (inactive),–,61.1 µM (inactive),95.1 µM (inactive),> 100 µM (inactive),> 100 µM (inactive),47.9 µM (inactive),–,–,–
Cn1nc(-c2ccccc2)c(C(=O)/C=C/c2ccccc2)c(N2CCCC2)c1=O,12.6 µM (inactive),7.8 µM (inactive),6.59 µM (inactive),13.5,12.6 µM (inactive),4.83 µM (inactive),11.4 µM (inactive),16.6 µM (inactive),15.3 µM (inactive),–,15.1 µM (inactive),–,–,13.2 µM (inactive),7.14 µM (inactive),–,4.34 µM (inactive),13.2 µM (inactive),–,–
COC(=O)C1CCC(=O)C(Sc2ccccc2)C1 (configuration not stated),> 100 µM (inactive),22.5 µM (inactive),> 100 µM (inactive),> 100,> 100 µM (inactive),52.7 µM (inactive),> 100 µM (inactive),> 100 µM (inactive),> 100 µM (inactive),24.4 µM (inactive),> 100 µM (inactive),–,> 100 µM (inactive),–,63.1 µM (inactive),> 100 µM (inactive),34 µM (inactive),> 100 µM (inactive),> 100 µM (inactive),–
Cn1c(=O)c2[nH]c(/N=N/N3CCN(CCO)CC3)nc2n(C)c1=O,> 100 µM (inactive),> 100 µM (inactive),> 100 µM (inactive),> 100,> 100 µM (inactive),> 100 µM (inactive),> 100 µM (inactive),> 100 µM (inactive),> 100 µM (inactive),–,> 100 µM (inactive),–,> 100 µM (inactive),> 100 µM (inactive),> 100 µM (inactive),> 100 µM (inactive),> 100 µM (inactive),> 100 µM (inactive),> 100 µM (inactive),> 100 µM (inactive)
COc1ccc(C(=O)c2c3cc(OC)c(OC)c(OC)c3cc[n+]2C)cc1,30.3 µM (inactive),20.9 µM (inactive),39.6 µM (inactive),–,26.5 µM (inactive),19.2 µM (inactive),36.7 µM (inactive),28.5 µM (inactive),17.5 µM (inactive),27.9 µM (inactive),–,50.2 µM (inactive),19.7 µM (inactive),18.6 µM (inactive),20.1 µM (inactive),–,–,> 10 µM (inactive),> 100 µM (inactive),35 µM (inactive)

# Source: ChEMBL document CHEMBL1201862, “PubChem BioAssay data set” (2004)
